# Laboratory results published in US20060058268A1, “Compounds and methods for treating diabetic vascular diseases” (priority 2004, published 2006).
# Tests used:
# cells = type: cell-based; set-up: unit not given beside the values
# Method: (§1) The plates are incubated at 37° C., 5% CO2 overnight (approximately 16 hours). The next day the plates are checked under the microscope to see if there are any visual signs of toxicity. Records are made of any cell death, debris, or morphology changes, as well as insoluble compounds (particulate or turbity).
# VCAM-1 = VCAM-1 assay with ELISA readout (Examples 5-6); type: cell-based; details: for IC50: TNF added with compound, incubated overnight (approximately 16 hours)
# Method: Two to four confluent P150 plates are trypsinized and the cells transferred to a 50 mL conical centrifuge tube. The cells are pelleted, resuspended, and counted using the trypan blue exclusion method.
# Cells are resuspended at a concentration of 36,000 cells/mL and 1 mL is aliquoted per well.
# Cells are split into 24 well tissue culture plates. The cells in each well should be approximately 90-95% confluent by the following day. Cells should not be older than passage 8.
# Compounds are initially screened at 50 μM and 10 μM. A 50 mM stock solution for each compound is prepared in culture medium. The stock solution is diluted to 5 mM and 1 mM. When 10 μL of the 5 mM solution is added to the well (1 mL medium/well), the final concentration will be 50 μM. Adding 10 μL of the 1 mM solution to the well will give a final concentration of 10 μM.
# Compounds which will not go into solution in culture medium are resuspended in DMSO at a concentration of 25 mM. The stock solution is then diluted to the final concentration in culture medium. The old medium is aspirated and 1 mL of the new medium with the compound is added. For example, if the final concentration is 50 µM, the 2 μL of the 25 mM stock is added per mL of culture medium. The […] solution is diluted for lower concentrations.
# The compounds are added to the plate (each compound is done in duplicate). One plate is done for VCAM expression and one plate is done for ICAM expression.
# Immediately after the compounds are added, TNF is added to each well. 100 units/mL TNF is usually added to each well. Since each lot of TNF varies in the number of units, each new lot is titrated to determine the optimum concentration. Therefore this concentration will change. If 100 units/mL is being used, dilute the TNF to 10 units/μL and add 10 μL to each well.
# as §1
# In order to assess MCP-1, the media (500 μL) is saved and frozen at −70° C. Wash cells once with roughly 1 ml/well of Hanks Balance Salt Solution (HBSS) or PBS. Gently empty the wash solution and then tap the plate onto paper towels. Add either 250 μL/well of HBSS+5% FCCS to the plank (no primary antibody wells) or 250 μL/well of primary antibody diluted in HBSS+5% FCS. Incubate for 30 minutes at 37° C. Wash the wells twice with 0.5 mL/well HBSS or PBS and gently tap the plates onto paper towels after the last wash. Add 250 μL/well of HRP-conjugated second antibody diluted in HBSS+5% FCS to every well including the blank wells (no primary antibody). Incubate at 37° C. for 30 minutes. Wash the wells four times with 0.5 mL/well HBSS or PBS and gently tap the plates onto paper towels after the last wash. Add 250 μL/well of substrate solution. Incubate at room temperature in the dark until there is adequate color development (blue). Note the length of time incubation was performed (typically 15-30 minutes). Add 75 μL/well stopper solution (8N sulfuric acid), and read at 450 nm.
Molecule,LD50 (cells),IC50 (VCAM-1) [µM],other results
"CC(C)(C)c1cc(SCc2ccc(C(=O)O)cc2)cc(C(C)(C)C)c1O [2,6-di-tert-butyl-4-thio(4′(methyl)benzoic acid)phenol]",>100,> 50,–
"CC(C)(C)c1cc(SCCc2ccc([N+](=O)[O-])cc2)cc(C(C)(C)C)c1O [2,6-di-tert-butyl-4-thio(4′-nitrophenethyl)phenol]",0.4,15,–
"CC(C)(C)c1cc(SCc2ccc(CCO)cc2)cc(C(C)(C)C)c1O [2,6-di-tert-butyl-4-thio(4′-(methyl)phenylethyl alcohol))phenol]",50,15,–
"CC(=O)Oc1ccc(CSc2cc(C(C)(C)C)c(O)c(C(C)(C)C)c2)cc1 [2,6-di-tert-butyl-4-thio(4′-acetoxybenzyl)phenol]",75,18,–
"CCCCC(OC(C)=O)Sc1cc(C(C)(C)C)c(O)c(C(C)(C)C)c1 (centres unmarked) [2,6-di-tert-butyl-4-thio((1′-(acetoxy))pentyl)phenol]",100,–,–
"CC(C)(C)c1cc(SCc2cccc([N+](=O)[O-])c2)cc(C(C)(C)C)c1O [2,6-di-tert-butyl-4-thio(3′-nitrobenzyl)phenol]",200,13,–
"CC(C)(Sc1cc(C(C)(C)C)c(O)c(C(C)(C)C)c1)Sc1cc(C(C)(C)C)c(OCc2ccc([N+](=O)[O-])cc2)c(C(C)(C)C)c1 [Phenol, 4-[[1-[3,5-bis(1,1-dimethylethyl)4-[(4-nitrophenyl)methoxy]phenyl]thio]-1-methylethyl]thio]2,6-bis(1,1-dimethylethyl)-]",>100,–,VCAM-1 inhibition at [μM] (VCAM-1; at 50 μM): 30% at 50
"CN(C)S(=O)(=O)c1ccc(CSc2cc(C(C)(C)C)c(O)c(C(C)(C)C)c2)cc1 [2,6-di-tert-butyl-4-thio(4′-methyl-N,N-dimethylbenzene-sulfonamide)phenol]",350,20,–
"CC(C)(C)c1cc(SCc2ccc([N+](=O)[O-])cc2)cc(C(C)(C)C)c1O [2,6-di-tert-butyl-4-thio(4′-nitrobenzyl)phenol]",200,10,–
"CC(C)(C)c1cc(SCc2ccc(CC(=O)O)cc2)cc(C(C)(C)C)c1O [2,6-di-tert-butyl-4-thio-(4′(methyl)phenylacetic acid)) phenol]",200,80,–
"CC(C)(C)c1cc(SCc2ccc(C(=O)O)o2)cc(C(C)(C)C)c1O [2,6-di-tert-butyl-4-thio((2′-furancarboxylic acid)-5-methyl)phenol]",400,40,–
"CC(C)(C)c1cc(SCc2ccc([N+](=O)[O-])cc2[N+](=O)[O-])cc(C(C)(C)C)c1O [2,6-di-tert-butyl-4-thio(2′,4′-dinitrobenzyl)phenol]",400,8,–
"CN(C)Cc1ccc(CSc2cc(C(C)(C)C)c(O)c(C(C)(C)C)c2)o1 [2,6-di-tert-butyl-4-thio(5′-methyl-2′-((dimethylamino)methyl)furan)phenol]",–,10,–
"CC(C)(Sc1cc(C(C)(C)C)c(O)c(C(C)(C)C)c1)Sc1cc(C(C)(C)C)c(OC(=O)CCC(=O)O)c(C(C)(C)C)c1 [Butanedioic acid, mono [4-[[1-[[3,5-bis(1,1-dimethylethyl)-4-hydroxyphenyl]thio]-1-methylethyl]thio]2,6-bis(1,1-dimethylethyl)phenyl] ester]",–,5.6,–
"Pentanedioic acid, (1-methylethylidene)bis(thio{2,6-bis(1,1-dimethylethyl)-4,1-phenylene)]ester",–,> 50,–
"CC(C)(Sc1cc(C(C)(C)C)c(O)c(C(C)(C)C)c1)Sc1cc(C(C)(C)C)c(OCC2OC2CO)c(C(C)(C)C)c1 (centres unmarked) [Oxiranemethanol, 3-[[4-[[1-[[3,5-bis(1,1-dimethylethyl)-4-hydroxyphenyl]thio]-1-methylethyl]thio]-2,6-bis(1,1-dimethylethyl)phenoxy]methyl]-]",–,> 100,–

Molecule,LD50 (cells),IC50 (VCAM-1) [µM],other results
"CN(C)CCCSc1cc(C(C)(C)C)c(O)c(C(C)(C)C)c1 [2,6-di-tert-butyl-4-thio(3′-(dimethylamino)propyl))phenol]",100,–,VCAM-1 inhibition at [μM] (VCAM-1; at 50 μM): 30% at 50
"CCOCC(O)COc1c(C(C)(C)C)cc(SC(C)(C)Sc2cc(C(C)(C)C)c(O)c(C(C)(C)C)c2)cc1C(C)(C)C (centres unmarked) [Phenol, 4-[[1-[[3,5-bis(1,1-dimethylethyl)-4-(3-ethoxy-2-hydroxypropoxy)phenyl]thio]-1-methylethyl]thio]-2,6-bis(1,1-dimethylethyl)-]",–,–,IC50 (VCAM-1; 16 h): 75 µM
"CC(C)(C)c1cc(S(=O)(=O)Cc2ccc([N+](=O)[O-])cc2)cc(C(C)(C)C)c1O [2,6-di-tert-butyl-4-(sulfonyl-(4′-nitrobenzyl))phenol]",100,40,–
"CC(C)(C)c1cc(SCCCS(=O)(=O)O)cc(C(C)(C)C)c1O [2,6-di-tert-butyl-4-thio(3′-propanesulfonic acid)phenol]",–,–,VCAM-1 inhibition at [μM] (VCAM-1; at 50 μM): 25% at 50
"Cc1ccc(CSc2cc(C(C)(C)C)c(O)c(C(C)(C)C)c2)cc1 [2,6-di-tert-butyl-4-thio(4′-methylbenzyl)phenol]",–,75,–
"CC(C)(Sc1cc(C(C)(C)C)c(O)c(C(C)(C)C)c1)Sc1cc(C(C)(C)C)c(OCC(O)C2CO2)c(C(C)(C)C)c1 (stereo not drawn) [Oxiranemethanol, α-[[4-[[1-[[3,5-bis(1,1-dimethylethyl)-4-hydroxyphenyl]thio]-1-methylethyl]thio]-2,6-bis(1,1-dimethylethyl)phenoxy]methyl]-]",–,45,–
"Butanedioic acid, (1-methylethylidine)bis[thio[2,6-bi(1,1-dimethylethyl)-4,1-phenylene}}ester",25,> 50,–
"CC(C)(Sc1cc(C(C)(C)C)c(O)c(C(C)(C)C)c1)Sc1cc(C(C)(C)C)c(OCC(O)CO)c(C(C)(C)C)c1 (centres unmarked) [1,2-Propanediol, 3-[4-[[1-[[3,5-bis(1,1-dimethylethyl)-4-hydroxyphenyl]thio]-1-methylethyl]thio]-2,6-bis(1,1-dimethylethyl)phenoxy]-]",–,–,IC50 (VCAM-1; 16 h): 30 µM
"C=CC(=O)OCCCCOc1c(C(C)(C)C)cc(SC(C)(C)Sc2cc(C(C)(C)C)c(O)c(C(C)(C)C)c2)cc1C(C)(C)C [2-Propenoic acid, 4-[4-[[1-[[3,5-bis(1,1-dimethylethyl)-4-hydroxyphenyl]thio]-1-methylethyl]thio]-2,6-bis(1,1-dimethylethyl)phenoxy]butyl ester]",–,–,IC50 (VCAM-1; 16 h): 75 µM
"CC(C)(Sc1cc(C(C)(C)C)c(O)c(C(C)(C)C)c1)Sc1cc(C(C)(C)C)c(O/C=C/C(=O)O)c(C(C)(C)C)c1 [2-Propenoic acid, 3-[4-[[1-[[3,5-bis(1,1-dimethylethyl)-4-hydroxyphenyl]thio]-1-methylethyl]thio]-2,6-bis(1,1-dimethylethyl)phenoxy]-, (E)-]",–,–,IC50 (VCAM-1; 16 h): 30 µM
"CC(C)(Sc1ccc(OCCCC(=O)O)cc1)Sc1cc(C(C)(C)C)c(O)c(C(C)(C)C)c1 [Butanoic acid, 4-[4-[[1-[[3,5-bis(1,1-dimethylethyl)-4-hydroxyphenyl]thio]-1-methylethyl]thio]phenoxy]-]",–,–,IC50 (VCAM-1; 16 h): 19 µM
"CC(C)(C)c1cc(SCc2ccc(C(F)(F)F)cc2)cc(C(C)(C)C)c1O [(2,6-di-tert-butyl-4-thio(4′-(trifluoromethyl)benzyl)phenol]",300,5,–
"CC(C)(C)c1cc(SCCCC(=O)O)cc(C(C)(C)C)c1O [2,6-di-tert-butyl-4-thio(butanoic acid)phenol]",200,75,–
"CC(C)(Sc1cc(C(C)(C)C)c(O)c(C(C)(C)C)c1)Sc1cc(C(C)(C)C)c(OC[C@H]2O[C@@H](O)[C@H](O)[C@@H](O)[C@@H]2O)c(C(C)(C)C)c1 [β-D-Glucopyranose, 6-O-[4-[[1-[[3,5-bis(1,1-dimethylethyl)-4-hydroxyphenyl]thio]-1-methylethyl]thio]-2,6-bis(1,1-dimethylethyl)phenyl]-]",–,–,inhibition at 50 µM (VCAM-1; at 50 μM): 30%
"CC(C)(Sc1ccc(OCCCCN)cc1)Sc1cc(C(C)(C)C)c(O)c(C(C)(C)C)c1 [Phenol, 4-[[1-[[4-(4-aminobutoxy)phenyl]thio]-1-methylethyl]thio]-2,6-bis(1,1-dimethylethyl)-]",–,–,IC50 (VCAM-1; 16 h): 5 µM
